The term pEC50 denotes the negative decadic logarithm of the EC50, by convention in mol/L.

Test [1] addresses T1, hA3AR (Homo sapiens, UniProt P0DMS8).
T1 sequence (P0DMS8 1-318): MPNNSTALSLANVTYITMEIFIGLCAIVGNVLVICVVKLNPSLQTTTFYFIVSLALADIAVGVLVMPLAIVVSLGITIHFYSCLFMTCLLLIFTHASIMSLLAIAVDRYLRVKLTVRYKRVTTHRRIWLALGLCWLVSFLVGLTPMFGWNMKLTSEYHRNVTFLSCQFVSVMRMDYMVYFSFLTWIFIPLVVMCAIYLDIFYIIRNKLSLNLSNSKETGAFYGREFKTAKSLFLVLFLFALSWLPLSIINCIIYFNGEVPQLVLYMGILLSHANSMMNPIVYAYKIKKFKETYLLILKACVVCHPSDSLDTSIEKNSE
In words: miniGαi recruitment bioassay. The test is classed as cell-based.

In test [2] the target is hA3AR (Homo sapiens, UniProt P0DMS8). Briefly: βarr2 recruitment bioassay. The format is cell-based.
Test [3] has as its system A3AR. The settings on record: cited from earlier work.
Test [4] deals with A3AR. The settings on record: Gao et al.; cited from earlier work.
For test [5], the system named is A3AR. Conditions: Gao et al.; cited from earlier work. This is another data set of the same source.
Test [6] has as its target T2, cannabinoid receptor CB1 (Homo sapiens, UniProt P21554). In words: βarr2 recruitment assay with CB1 cannabinoid receptor. The format is cell-based. The settings on record: 5 μM.
Test [7] addresses T2, cannabinoid receptor CB1. In words: miniGαi coupling assay with CB1 cannabinoid receptor. The format is cell-based. Conditions: 5 μM.
Where [8] appears, read: 90 min read-out, AUC, normalized to NECA.
[9] abbreviates: addition of 2-chloro substituent.

Each structure is given as a SMILES string. pEC50: −log10 of the molar value.

T2 sequence (P21554 whole entry): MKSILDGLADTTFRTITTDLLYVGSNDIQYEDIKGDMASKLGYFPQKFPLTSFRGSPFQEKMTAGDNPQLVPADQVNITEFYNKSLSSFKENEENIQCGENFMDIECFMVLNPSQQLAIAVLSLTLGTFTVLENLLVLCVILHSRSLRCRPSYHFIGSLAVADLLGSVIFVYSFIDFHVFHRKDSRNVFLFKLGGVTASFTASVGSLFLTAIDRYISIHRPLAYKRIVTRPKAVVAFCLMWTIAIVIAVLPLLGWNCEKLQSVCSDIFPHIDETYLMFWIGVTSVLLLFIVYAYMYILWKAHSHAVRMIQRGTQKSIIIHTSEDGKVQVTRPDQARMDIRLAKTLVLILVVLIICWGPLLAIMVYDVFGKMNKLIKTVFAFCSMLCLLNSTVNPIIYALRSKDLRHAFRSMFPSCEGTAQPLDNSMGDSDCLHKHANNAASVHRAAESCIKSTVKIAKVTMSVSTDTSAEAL

With `OCC1OC(n2cnc3c(NC4CCc5ccccc54)ncnc32)C(O)C1O` (stereo not shown) [compound 17], at hA3AR [1] (setting [8]), the “EC50, miniGαi recruitment” value is “micromolar range”. Moreover, on hA3AR [2] (setting [8]), the “EC50, βarr2 recruitment” value is listed as “micromolar range”.

With `CC(Cc1ccccc1)Nc1nc(Cl)nc2c1ncn2C1OC(CO)C(O)C1O` (stereo not shown) [compound 9], at hA3AR [1] (setting [9]), the “fold increased potency versus compound 8, miniGαi” value was “approximately five”. Also, on hA3AR [2] (setting [9]), the “fold increased potency versus compound 8, βarr2” value is recorded as “approximately five”.

Turning to `OCC1OC(n2cnc3c(NC4CC4c4ccccc4)ncnc32)C(O)C1O` (stereo not shown) [compound 2], at hA3AR [1] (inversion to 1R,2S orientation), the “fold reduction in potency versus compound 1, miniGαi” value is given as ~100 fold. In addition, the “fold reduction in potency versus compound 1, βarr2” value on hA3AR [2] (inversion to 1R,2S orientation) is 40 fold.

In the case of `OCC1OC(n2cnc3c(NC(C4CC4)C4CC4)ncnc32)C(O)C1O` (stereo not shown) [compound 13], the “receptor activation signal, miniGαi bioassay” value on hA3AR [1] is on record as “same observation”. The “receptor activation signal, βarr2 bioassay” value on hA3AR [2] is “same observation”.

As to `CNC(=O)[C@H]1O[C@@H](n2cnc3c(NCc4cccc(I)c4)ncnc32)[C@H](O)[C@@H]1O` [IB-MECA], in the test with A3AR [3] (previously reported), the “Emax, cAMP assay” value was […]. The pEC50 with A3AR [3] (read-out: EC50, cAMP assay, previously reported) is […].

Turning to `CNC(=O)[C@H]1O[C@@H](n2cnc3c(NCc4cccc(I)c4)nc(Cl)nc32)[C@H](O)[C@@H]1O` [2-Cl-IB-MECA, 2-chloro-N^6-(3-iodobenzyl)-5′-N-methylcar-boxamidoadenosine], the “agonist class in PathHunter assay for βarr2 recruitment” value with A3AR [4] is “full agonist”. The “agonist class in calcium mobilization assay” value with A3AR [5] is recorded as “partial agonist”.

In the case of `CC(C)Nc1ncnc2c1ncn2[C@@H]1O[C@H](CO)[C@H](O)C1O` (stereo partly shown) [compound 10], the pEC50 at hA3AR [1] (read-out: EC50, miniGαi recruitment, 90 min read-out, AUC, normalized to NECA) is 6.36; on hA3AR [2] (read-out: EC50, βarr2 recruitment, 90 min read-out, AUC, normalized to NECA), 6.17.

Consider `OCC1OC(n2cnc3c(NC4CCCCC4c4ccccc4)ncnc32)C(O)C1O` (stereo not shown) [compound 4], for which the “receptor activation signal, miniGαi bioassay” value on hA3AR [1] is on record as “no clear activation signal”. Besides, at hA3AR [2], the “receptor activation signal, βarr2 bioassay” value is given as “no clear activation signal”.

Take `OC[C@H]1O[C@@H](n2cnc3c(N[C@H]4C[C@@H]4c4ccccc4)ncnc32)[C@H](O)[C@@H]1O` [compound 1, N^6-((1S,2R)-2-phenyl-1-cyclopropyl)-adenosine]: the “signal in βarr2 recruitment assay with CB1-LgBiT” value at cannabinoid receptor CB1 [6] was “unable to generate a signal”. Further, on cannabinoid receptor CB1 [7], the “signal in miniGαi coupling assay with CB1-LgBiT” value is listed as “unable to generate a signal”.

In the case of `OCC1OC(n2cnc3c(NCc4cccs4)ncnc32)C(O)C1O` (stereo not shown) [compound 15], the “EC50, miniGαi recruitment” value at hA3AR [1] (setting [8]) was “micromolar range”. Further, at hA3AR [2] (setting [8]), the “EC50, βarr2 recruitment” value is listed as “micromolar range”.

Regarding `OC[C@H]1O[C@@H](n2cnc3c(NCc4ccco4)ncnc32)[C@H](O)[C@@H]1O` [compound 14], the “EC50, miniGαi recruitment” value at hA3AR [1] (setting [8]) is “micromolar range”. Further, the “EC50, βarr2 recruitment” value on hA3AR [2] (setting [8]) is on record as “micromolar range”.

As to `CC(C)C(Nc1ncnc2c1ncn2C1OC(CO)C(O)C1O)C(C)C` (stereo not shown) [compound 12], the “receptor activation signal, miniGαi bioassay” value at hA3AR [1] was “could not be measured”. In addition, the “receptor activation signal, βarr2 bioassay” value at hA3AR [2] was “could not be measured”.

On to `OC[C@H]1O[C@@H](n2cnc3c(NCC(c4ccccc4)c4ccccc4)ncnc32)[C@H](O)[C@@H]1O` [compound 19], for which the “functional class in the cAMP pathway” value in the test on A3AR [3] (Tchilibon et al.) was “antagonist”.

(Values after PMC7382964 (Biochemical pharmacology, 2020).)
